Results on 9 compounds are retold here after patent US10150984B2, “Tyrosine kinase biosensors and methods of use” (Purdue Research Foundation, priority 2012, dated 2018).

Read-outs that look alike come from different tables or passages of the source. *1 amine or outer side, *2 acyl side, *3 side chain or, on linkers, in order; H or OH if unused. Where no end group is shown, it is not given here. [ ]: non-standard residue; d: D form. The star is where a group is joined. ξ: configuration not given here. ξβ3hPhg(2-NO2) = O=C(CC(N[*:1])c1ccccc1[N+](=O)[O-])[*:2]; Biotin = O=C1N[C@H]2[C@H](CS[C@H]2CCCCC(=O)*)N1

Series [1] relates to peripheral T-cell lymphomas (PTCLs). As to conditions: PTCL cells; cited from earlier work.
In series [2] the target is Syk-EGFP (Mus musculus, UniProt P48025). The series can be described thus: Terbium time-resolved luminescence dose-response inhibition assay with SAStide. It is filed as biochemical. The note with it: SAStide 37.5 μM, 30 min, Tb3+ luminescence, read-out: observed IC50.
Syk-EGFP, sequence (P48025 whole entry): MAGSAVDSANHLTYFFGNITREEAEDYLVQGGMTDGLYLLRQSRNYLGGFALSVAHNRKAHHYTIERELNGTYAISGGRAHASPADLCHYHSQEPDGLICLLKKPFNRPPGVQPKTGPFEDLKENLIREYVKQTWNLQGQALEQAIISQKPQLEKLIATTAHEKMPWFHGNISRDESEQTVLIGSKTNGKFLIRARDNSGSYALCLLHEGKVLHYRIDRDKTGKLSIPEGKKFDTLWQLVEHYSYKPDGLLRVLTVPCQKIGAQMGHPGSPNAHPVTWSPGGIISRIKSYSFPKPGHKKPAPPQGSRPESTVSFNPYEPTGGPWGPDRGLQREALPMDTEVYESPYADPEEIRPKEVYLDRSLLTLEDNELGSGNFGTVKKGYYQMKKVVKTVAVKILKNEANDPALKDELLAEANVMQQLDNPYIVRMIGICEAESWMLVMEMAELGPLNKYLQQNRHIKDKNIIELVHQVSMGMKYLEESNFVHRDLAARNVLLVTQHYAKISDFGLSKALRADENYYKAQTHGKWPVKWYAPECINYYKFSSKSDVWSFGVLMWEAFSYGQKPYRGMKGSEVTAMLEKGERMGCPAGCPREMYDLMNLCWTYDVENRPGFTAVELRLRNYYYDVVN
Series [3] in a line: Tb3+ binding affinity and stoichiometry by sensitized luminescence.
Series [4] concerns the target Lyn (Homo sapiens, UniProt P07948). As to the kind of experiment: In vitro kinase assay, ELISA-based detection of peptide phosphorylation. Type of series: biochemical. As to conditions: ELISA read-out. As for the experimental part:
(§1) In vitro kinase assay. Recombinant Abl, Src and Lyn enzymes were obtained from a commercial source (Millipore). EGFP-conjugated Syk was isolated from DT40 chicken B cells stably expressing Syk-EGFP. GFP-conjugated Lck was isolated from Jurkat cells stably expressing Lck-EGFP. Cells were lysed using a solution containing 1% Nonidet P-40, 50 mM Tris-HCl pH 8.0, 100 mM NaCl, 5 mM EDTA, 1 mM sodium orthovanadate, 2 mM NaF and 1× mammalian protease inhibitor cocktail (Sigma). Syk- and Lck-EGFP were immunoprecipitated using GFP-Trap_A beads (Chromotek) or anti-GFP magnetic nanoparticle beads (MBL, Japan). Lysates were incubated with the beads for 1 h at 4° C. The kinase-bound beads were washed and then used in the in vitro kinase assay. Syk-EGFP, Lck-EGFP, or purified Abl or Src kinase (0.1 U) were incubated with kinase reaction buffer (500 μM ATP, 5 mM MnCl2, HEPES, pH 7.2) containing the peptide substrate at 25 μM. Aliquots (22 μL) were taken at designated time points and quenched in 0.5 M EDTA, pH 8.5 (22 μL). The quenched sample (1 μL) was diluted into ELISA-based detection wash buffer and analyzed as described below. For substrate comparison assays, kinase reaction conditions were as described above except that substrate concentrations were 4 μM, and concentration of enzyme used per reaction was 6 nM. The volume of aliquots diluted in an equal volume of quench buffer was 4 μl (for 8 μl total quenched volume), and the entire quenched amount was diluted into ELISA wash buffer and analyzed as described below.
(§2) ELISA-based fluorescence detection. Samples were incubated in a 96-well Neutravidin™ coated plate (Thermo Scientific) in Tris-buffered saline (TBS) containing 0.1% BSA and 0.05% Tween 20 for 1 h at room temperature on a short-radius plate shaker (600 rpm). Following incubation, wells were washed three times with wash buffer (TBS, 0.1% BSA, 0.05% Tween 20), then incubated with mouse anti-phosphotyrosine monoclonal antibody 4G10 (1:5000 dilution in wash buffer, 100 μL per well) for 1 h at room temperature with shaking. Wells were washed three times with wash buffer and incubated with horseradish peroxidase-conjugated goat anti-mouse immunoglobulin G (IgG) secondary antibody (Abcam) (1:1000 dilution in the wash buffer, 100 μL per well) for 1 h at room temperature with shaking. Wells were then washed three times with wash buffer and twice with sodium phosphate buffer (0.05 M, pH 7.5). For chemifluorescence detection, Amplex Red™ reaction buffer (100 μL total volume/well) consisting of Amplex Red™ reagent (50 μL) (Invitrogen), 20 mM H2O2 (500 μL) and sodium phosphate buffer (4500 μL) and allowed to react for 30 min. Fluorescence of Amplex Red™ was measure using a Synergy4 multiwell plate reader (Biotek) with an excitation wavelength of 532 nm and emission wavelength of 590 nm.

For series [5], the target named is Src (Homo sapiens, UniProt P12931). Described as above. As to conditions: ELISA read-out. It is filed as biochemical. As for the experimental part: as §1, §2
The target in series [6] is T1, Syk (Mus musculus, UniProt P48025).
T1 construct: made in house; host or cells: DT40 chicken B cells (Syk-deficient, reconstituted with Syk-EGFP)
T1 sequence (P48025 whole entry): as above
The series is described as above. It is filed as biochemical. The note with it: ELISA read-out. As for the experimental part: as §1, §2

For series [7], the target named is T2, Abl (Homo sapiens, UniProt P00519). The series is described as above. As to conditions: ELISA read-out. It is filed as biochemical. On the procedure:
as §1, §2

Series [8] deals with DG75 and DT40 B cell lines. As to the kind of experiment: Toxicity of SAStide biosensor peptide in the cell-based assay. As to conditions: peptide at 25 μM. As for the experimental part:
Cell culture and biological reagents. The DG75 and DT40 B cell lines were grown to a density of 0.4×10^6 cells/mL in RPMI-1640 medium containing 7.5% FBS, 1 mM sodium pyruvate, 100 IU/mL penicillin, 100 μg/mL streptomycin and 50 μM 2-metcaptoethanol. Additionally, DT40 cell medium contained 1% chicken serum. Anti-chicken IgM and anti-mouse IgM F(ab′)2 fragments were purchased from Bethyl Laboratories. Anti-human IgM was purchased from Rockland Immunochemicals. Hydrogen peroxide was purchased from Mallinckrodt. Anti-Syk (N-19) was purchased from Santa Cruz Biotechnology. Anti-tubulin and anti-phosphotyrosine (4G10) were purchased from Millipore. Anti-phospho Syk (Y525/526) was purchased from Cell SignalingTechnology.
Cell-Based peptide SAStide biosensor assay. […] Aliquots of the cell suspension (1 mL) were harvested, lysed in PhosphoSafe Extraction Reagent (EMD Millipore) containing 167 mM EDTA and freshly prepared protease inhibitor cocktail (Roche) and flash frozen. Half the cell lysate from each sample was used for ELISA-based fluorescence detection and the other for immunoblotting. For dose-response experiments, cells were stimulated with varying concentrations of anti-IgM (2.5-10 μg/mL) or hydrogen peroxide (1-7 mM), harvested at 5 min post-stimulation and processed as described above. For immunoblotting, membranes were blocked in 5% goat serum for 1 h. […]

In series [9] the target is T3, Bcr-Abl (Homo sapiens, UniProt P00519). The series can be described thus: Cell-based Bcr-Abl biosensor assay in K562 cells, Western blot.
T3 sequence (P00519 with tags, fused parts or gaps): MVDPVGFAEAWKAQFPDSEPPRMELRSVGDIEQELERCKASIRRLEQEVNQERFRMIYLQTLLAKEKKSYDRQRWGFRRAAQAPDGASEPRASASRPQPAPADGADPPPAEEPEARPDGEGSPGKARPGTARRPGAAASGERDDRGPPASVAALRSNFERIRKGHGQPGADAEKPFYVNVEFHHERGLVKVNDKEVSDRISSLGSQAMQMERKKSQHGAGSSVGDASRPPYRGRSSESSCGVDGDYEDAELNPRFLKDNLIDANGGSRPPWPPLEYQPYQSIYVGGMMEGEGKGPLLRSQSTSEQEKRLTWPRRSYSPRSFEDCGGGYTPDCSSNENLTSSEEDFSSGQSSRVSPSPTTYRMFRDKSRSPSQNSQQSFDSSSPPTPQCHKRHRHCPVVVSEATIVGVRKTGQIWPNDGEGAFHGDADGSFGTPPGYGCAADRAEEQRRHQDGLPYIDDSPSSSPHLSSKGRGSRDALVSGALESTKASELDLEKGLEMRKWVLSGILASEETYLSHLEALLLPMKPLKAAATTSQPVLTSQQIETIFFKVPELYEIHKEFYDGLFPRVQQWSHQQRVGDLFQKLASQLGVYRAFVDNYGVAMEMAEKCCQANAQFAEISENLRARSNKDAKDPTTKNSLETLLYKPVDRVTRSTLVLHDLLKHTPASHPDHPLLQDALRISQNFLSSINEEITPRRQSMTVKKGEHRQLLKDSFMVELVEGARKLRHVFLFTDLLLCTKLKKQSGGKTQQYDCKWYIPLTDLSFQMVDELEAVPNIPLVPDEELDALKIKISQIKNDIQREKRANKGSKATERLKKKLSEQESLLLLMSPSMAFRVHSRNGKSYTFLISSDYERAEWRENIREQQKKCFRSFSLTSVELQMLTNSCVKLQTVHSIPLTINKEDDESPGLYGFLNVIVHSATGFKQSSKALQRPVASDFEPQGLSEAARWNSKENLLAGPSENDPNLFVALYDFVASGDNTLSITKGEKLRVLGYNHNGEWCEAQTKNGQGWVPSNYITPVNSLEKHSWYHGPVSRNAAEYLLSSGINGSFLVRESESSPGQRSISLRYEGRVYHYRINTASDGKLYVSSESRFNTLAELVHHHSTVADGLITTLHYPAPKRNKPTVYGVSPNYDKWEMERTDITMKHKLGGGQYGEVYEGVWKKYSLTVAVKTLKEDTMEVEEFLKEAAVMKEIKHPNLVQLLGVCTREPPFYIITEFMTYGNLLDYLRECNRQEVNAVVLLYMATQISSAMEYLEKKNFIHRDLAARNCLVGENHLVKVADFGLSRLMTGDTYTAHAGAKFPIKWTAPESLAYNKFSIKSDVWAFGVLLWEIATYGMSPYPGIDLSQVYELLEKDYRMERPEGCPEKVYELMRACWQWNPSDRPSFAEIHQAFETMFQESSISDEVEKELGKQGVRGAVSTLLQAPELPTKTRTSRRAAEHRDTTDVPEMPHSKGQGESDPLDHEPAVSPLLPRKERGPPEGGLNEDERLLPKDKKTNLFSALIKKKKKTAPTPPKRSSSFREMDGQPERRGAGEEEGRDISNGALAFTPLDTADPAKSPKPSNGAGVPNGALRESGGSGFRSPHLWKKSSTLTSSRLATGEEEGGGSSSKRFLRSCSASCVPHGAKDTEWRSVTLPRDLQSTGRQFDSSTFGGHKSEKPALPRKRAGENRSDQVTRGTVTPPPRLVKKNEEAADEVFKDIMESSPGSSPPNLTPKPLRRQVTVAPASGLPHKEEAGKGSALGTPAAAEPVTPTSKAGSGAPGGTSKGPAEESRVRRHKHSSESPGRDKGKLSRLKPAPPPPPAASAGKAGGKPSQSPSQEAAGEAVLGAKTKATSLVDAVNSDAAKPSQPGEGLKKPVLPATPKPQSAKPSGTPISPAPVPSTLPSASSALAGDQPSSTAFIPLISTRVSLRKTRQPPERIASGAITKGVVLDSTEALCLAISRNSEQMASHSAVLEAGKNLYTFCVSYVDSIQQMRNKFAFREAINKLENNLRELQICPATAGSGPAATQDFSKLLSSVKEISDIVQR
Series [10] concerns K562 cells. The series can be described thus: Intracellular degradation of biosensor peptide in K562 cells, MALDI-TOF/TOF. As to conditions: 5 min exposure.
The target in series [11] is T2, Abl. As to the kind of experiment: ABStide specificity in vitro kinase assay (terbium luminescence, confirmed by ELISA). As to conditions: terbium-sensitized luminescence. It is filed as biochemical. On the procedure:
Terbium based in vitro kinase assays. Recombinant kinases were incubated with the kinase reaction buffer (15 nM kinase, 100 μM ATP, 10 mM MgCl2, 125 ng/μL BSA and 25 mM HEPES pH 7.5, total volume 180 μL) containing 12.5 μM biosensor at 30° C. Aliquots (20 μL) were taken at designated time points (0.5, 5, 10, 15, 30, 45 and 60 min) and quenched in 6 M urea (20 μL). The quenched samples were then treated with the luminescence buffer (500 μM Tb^3+ and 500 mM NaCl, 10 μL) for a total volume of 50 μL (final concentrations of sample components: 2.4 M urea, 40 μM ATP, 4 mM MgCl2, 50 ng/μL BSA and 10 mM HEPES pH 7.5). Luminescence emission spectra were collected as described above and the area under each spectrum was integrated using GraphPad Prism. An additional aliquot (2 μL) of the kinase reaction mixture was taken at each time point for validation of phosphorylation using an ELISA-based chemifluorescent assay as previously described. Briefly, each aliquot was quenched with 0.5 M EDTA and incubated in a 96-well Neutravidin coated plate (15 pmol biotin binding capacity per well, Thermo Scientific) in Tris-buffer saline (TBS) containing 0.1% BSA and 0.05% Tween 20 for 1 h. […] Fluorescence was measured using a Synergy4 multiwell plate reader (Biotek) with an excitation wavelength of 532 nm and emission wavelength of 590 nm.

For series [12], the target named is T3, Bcr-Abl. The series can be described thus: Cell-based Bcr-Abl biosensor assay in K562 cells, MRM mass spectrometry. Set-up: endogenous in cells; host or cells: K562 cells; the other entry of the earlier key: BCR (P11274, Breakpoint cluster region protein). The note with it: 5 min, 1 μg lysate.
Setting [13] is: 1 μM peptide, Tb3+ 0-50 μM, read-out: Kd of peptide:terbium complex.

T2 sequence (P00519 whole entry, species assumed): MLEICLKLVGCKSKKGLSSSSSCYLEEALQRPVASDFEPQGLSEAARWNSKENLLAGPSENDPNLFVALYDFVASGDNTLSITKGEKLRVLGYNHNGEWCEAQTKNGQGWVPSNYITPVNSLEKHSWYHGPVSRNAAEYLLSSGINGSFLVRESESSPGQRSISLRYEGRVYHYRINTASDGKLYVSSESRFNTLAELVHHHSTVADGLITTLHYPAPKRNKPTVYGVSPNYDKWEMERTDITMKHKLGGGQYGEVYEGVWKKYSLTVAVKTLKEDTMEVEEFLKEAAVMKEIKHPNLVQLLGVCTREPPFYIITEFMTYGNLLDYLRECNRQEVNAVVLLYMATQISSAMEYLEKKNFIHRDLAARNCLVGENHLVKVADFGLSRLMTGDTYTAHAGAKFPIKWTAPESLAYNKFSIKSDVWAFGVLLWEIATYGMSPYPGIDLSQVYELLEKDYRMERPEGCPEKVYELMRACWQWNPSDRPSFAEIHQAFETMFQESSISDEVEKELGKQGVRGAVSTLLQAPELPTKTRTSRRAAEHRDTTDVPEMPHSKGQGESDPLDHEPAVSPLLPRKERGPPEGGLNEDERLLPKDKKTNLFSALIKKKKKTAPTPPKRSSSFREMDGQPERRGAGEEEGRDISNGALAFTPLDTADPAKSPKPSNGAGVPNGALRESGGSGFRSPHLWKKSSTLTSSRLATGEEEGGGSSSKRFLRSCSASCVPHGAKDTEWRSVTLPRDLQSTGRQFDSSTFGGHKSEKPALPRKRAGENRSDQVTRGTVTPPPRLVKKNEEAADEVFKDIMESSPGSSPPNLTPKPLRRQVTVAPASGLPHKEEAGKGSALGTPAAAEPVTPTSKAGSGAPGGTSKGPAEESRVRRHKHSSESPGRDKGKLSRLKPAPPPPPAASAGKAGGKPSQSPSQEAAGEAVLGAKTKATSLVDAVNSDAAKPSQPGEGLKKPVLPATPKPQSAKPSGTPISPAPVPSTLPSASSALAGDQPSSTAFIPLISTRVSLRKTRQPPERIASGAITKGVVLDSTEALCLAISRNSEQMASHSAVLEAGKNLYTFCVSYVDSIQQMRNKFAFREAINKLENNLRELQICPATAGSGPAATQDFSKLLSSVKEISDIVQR
Lyn, sequence (P07948 whole entry, species assumed): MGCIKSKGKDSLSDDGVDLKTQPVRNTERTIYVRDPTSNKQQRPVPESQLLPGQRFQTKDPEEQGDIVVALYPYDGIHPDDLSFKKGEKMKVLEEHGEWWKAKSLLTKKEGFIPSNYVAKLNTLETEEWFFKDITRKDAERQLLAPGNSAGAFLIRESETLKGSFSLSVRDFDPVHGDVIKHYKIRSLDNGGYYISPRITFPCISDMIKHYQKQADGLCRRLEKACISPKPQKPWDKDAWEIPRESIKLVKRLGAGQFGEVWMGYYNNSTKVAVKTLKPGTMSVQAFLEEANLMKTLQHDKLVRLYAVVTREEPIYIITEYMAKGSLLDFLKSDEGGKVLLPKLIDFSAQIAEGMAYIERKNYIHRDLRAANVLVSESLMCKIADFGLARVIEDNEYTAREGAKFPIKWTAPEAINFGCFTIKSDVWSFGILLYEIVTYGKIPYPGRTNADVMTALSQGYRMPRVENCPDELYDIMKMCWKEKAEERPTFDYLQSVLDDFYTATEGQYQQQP

Take `COc1cc(Nc2ncc(F)c(Nc3ccc4c(n3)NC(=O)C(C)(C)O4)n2)cc(OC)c1OC` [R406]: in series [1], the “effect on cells with elevated Syk Y525/Y526 phosphorylation” value is “induces apoptosis and blocks proliferation”.

Turning to `Oc1cc(O)cc(/C=C/c2ccc(O)c(O)c2)c1` [piceatannol], in series [2], the half-maximal inhibitory concentration (IC50) was determined as 178 ± 1.4 µM.

In the case of DEEDYEEPDEP [SAStide], the Kd in [3] (read-out: Kd of 1:1 peptide-terbium complex) was 7.64 ± 0.32 µM. In addition, the “phosphorylation of peptide by Lyn” value in [4] was “none of which produced any significant signal”. In addition, the “phosphorylation of peptide by Src” value in [5] is recorded as “none of which produced any significant signal”. The “phosphorylation of peptide by Syk” value in series [6] is reported as “phosphorylated”. Besides, the “phosphorylation of peptide by Abl” value in series [7] is given as “none of which produced any significant signal”. Besides, the “toxicity of peptide to cells” value in series [8] is given as “no toxicity was observed”.

As to “EAIYAAPFAKKK(Biotin)G[ξβ3hPhg(2-NO2)]GCGGAPTYSPPPPPGGRKKRRQRRRLL [Abl biosensor]”, in series [9] (25 μM peptide), the “uptake into K562 cells” value is “readily taken up”. Also, the “intact peptide after exposure to cells” value in series [10] was “essentially no intact peptide was observed”.

For “GGDEDDNDEVAYQAPFEDGGKbiotinGG (GGDEDDNDEVAYQAPFEDGGK(Biotin)GG) [ABStide, Abl artificial substrate peptide]”, the “substrate specificity Abl against Hck” value in series [11] was “specific for Abl”.

For “GGDNEGDVYDFVEDGGKbiotin (GGDNEGDVYDFVEDGGK(Biotin)GG) [SFAStideB, Src family artificial substrate peptide B]”, in series [3] (setting [13]), the Kd came out at 2.5 µM.

Consider GGEEDEDIYEELDEPGGKbiotinGG [SFAStide-A], for which the Kd in series [3] (setting [13]) turned out to be 3.93 µM. Further, the “phosphorylation of peptide by Lyn” value in series [4] is “phosphorylate SFAStide-A efficiently”. In series [5], the “phosphorylation of peptide by Src” value was “phosphorylate SFAStide-A efficiently”. For the same compound, the “phosphorylation of peptide by Syk” value in [6] is “will not”. In addition, the “phosphorylation of peptide by Abl” value in series [7] was “will not”.

On to “pSFAStideA [Phosphorylated form of SFAStide-A]”, for which the Kd in [3] (setting [13]) turned out to be 0.77 µM.

With pervanadate [reference compound], the “effect on phosphorylation of Abl biosensor” value in series [9] (K562 cells, 10 μM imatinib or 1 μM pervanadate, 5, 30, 60 min) was “stabilized”. Moreover, in [12], the “phosphorylated biosensor peptide detected” value is “higher levels”.
